This is an account of results in patent US20110224232A1 (Board of Regents, The University of Texas System, priority 2008, published 2011).

One data set concerns A. fumigatus. The conditions noted are these: cited from earlier work.
Data set [1] is described as follows: Single-dose pharmacokinetics of inhaled voriconazole in mice. The conditions noted are these: for AUC(0-t): AUC (0-6 hr) Plasma.
Experimental: Initially, a single dose PK profile was performed on large mice with a 5 L/min flow rate through the dosing apparatus (see Table 2).
A subsequent PK study was then performed on smaller mice due to the mouse size constraints of the murine model of infection at a lower air flow rate of 1 L/min. Male ICR mice were exposed to a 20 minute nebulization period. […] Plasma was separated from whole blood collected to determine drug concentration (adapted from Pascual et al., Antimicrobial Agents and Chemotherapy, 2007, 51:1). Lungs were harvested and homogenized to determine drug concentration (adapted from Lutsar et al., Clinical Infectious Disease, 2003, 37:5).
Mice were dosed using a nose-only dosing apparatus as illustrated in FIGS. 1A-1B. VFEND® IV was reconstituted, diluted, and aerosolized as described previously. The airflow through the dosing apparatus was varied from 1-5 L/min (see Table 2). Sufficient solution was added to the medication reservoir to have residual volume remaining after 20 minutes. The nose-only dosing apparatus and nebulizer were disassembled between each dose, cleaned, dried, and reassembled.
Pharmacokinetic (PK) profiles were determined for high flow rate and low flow rate mice groups following a single 20 minute nebulization. Mice were ordered with masses of 32 g (high flow rate mice) and 20 g (low flow rate mice). Two or more mice were sacrificed by carbon dioxide narcosis at each time point (high flow rate mice—5, 10, 20, 30, 60, 90, 150, 240, 360, 720, and 1440 minutes or low flow rate mice—10, 30, 60, 240, 360, and 480 minutes). Whole blood was collected by cardiac puncture, stored in heparinized vials, and centrifuged to obtain plasma. Surgery was also performed on each mouse to extract the whole lungs which were then homogenized in 1 mL of normal saline. […] The trapezoidal rule was used to estimate the area under the curve (AUC) for each concentration versus time profile.
Briefly, sterile water for injection (SWFI) was added to lung tissue and homogenized using a rotor and stator high shear homogenizer. Proteins and other cellular components were precipitated following addition of 0.2M borate buffer (pH 9.0), ethyl acetate, and centrifugation. Supernatant was then extracted three times and liquid was evaporated under a gentle stream of nitrogen.
For lung tissue, SWFI was added to lung tissue and homogenized using a rotor and stator high shear homogenizer. […] Supernatant was then extracted three times and liquid was evaporated under a gentle stream of nitrogen.
Each sample was analyzed using a Waters Breeze liquid chromatograph (Waters Corporation, Milford Mass.) equipped with a heated (35° C.) JUPITER® C18 (150 mm×4.6 mm, 5 micrometer) with a Universal security guard (Widepore C18) guard column (Phenomenex, Torrance, Calif.). The sample volume was 50 microliter with a UV detection wavelength of 254 nm. The mobile phase consisted of a 50:50 mixture of 0.01 M sodium acetate buffer and methanol at 1 mL/min.
Male ICR mice were dosed using a nose-only dosing apparatus as illustrated in FIGS. 1A and 1B. The airflow through the dosing apparatus was varied from 1-5 L/min. VFEND® IV was reconstituted, diluted, and sufficient solution was added to the medication reservoir to have residual volume remaining after 20 minutes. The nose-only dosing apparatus and nebulizer were disassembled between each dose, cleaned, dried, and reassembled.
Single-dose pharmacokinetic profiles were determined in two groups of mice: a high flow-rate group (5 L/min air flow, 32 g average mass) and low flow-rate group (1 L/min, 20 g average mass). Two or more mice were sacrificed by carbon dioxide narcosis at each time point (high flow-rate: 5, 10, 20, 30, 60, 90, 150, 240, 360, 720, and 1440 minutes or low flow-rate mice: 10, 30, 60, 240, 360, and 480 minutes). Whole blood was collected by cardiac puncture into heparinized vials and centrifuged to obtain plasma.
[2] abbreviates: Small Mice (low flow rate, 1 L/min), single dose.

Take `CC(c1ncncc1F)C(O)(Cn1cncn1)c1ccc(F)cc1F` (stereo not drawn) [Voriconazole, 2-(2,4-difluorophenyl)-3-(5-fluoropyrimidin-4-yl)-1-(1H-1,2,4-triazol-1-yl)butan-2-ol]: the “fungicidal activity at a low concentration” value with A. fumigatus is 0.5 microgram/mL. Moreover, the “EC50 value (concentration resulting in 50% inhibition of growth compared to control)” value with A. fumigatus (non-linear regression analysis) is recorded as 0.18 micrograms/mL. The “Cmax Lung” value came out at 1.62 microgram/g in data set [1] (Large Mice (high flow rate, 5 L/min), single dose) and 11.02 microgram/g in data set [1] (setting [2]). Also, the “AUC (0-6 hr) Lung” value in data set [1] (setting [2]) was 2408.0 microgram × min/g. This compound also came in with a Kp in data set [1] (male, ICR, mouse, in vivo, inhaled or intranasal) of 1.4 to 1.6. Besides, the Tmax (usually the time from dosing to the highest level) in data set [1] (male, ICR, mouse, lung, inhaled or intranasal, 6.09 microgram/mL, Tmax Lung, Small Mice (low flow rate, 1 L/min), single dose, 20 minute nebulization) was not above 30 min; in data set [1] (male, ICR, mouse, lung, inhaled or intranasal, Lung Tmax, summary table), 10 to 30 min; in data set [1] (male, ICR, mouse, lung, inhaled or intranasal, Tmax Lung, Large Mice (high flow rate, 5 L/min), single dose, 20 minute nebulization) it was 10 min; in data set [1] (male, ICR, mouse, lung, inhaled or intranasal, Tmax Lung, Small Mice (low flow rate, 1 L/min), single dose, 20 minute nebulization) it was 30 min; in data set [1] (male, ICR, mouse, plasma (heading says blood), inhaled or intranasal, Blood Tmax, summary table) it was 20 to 30 min; in data set [1] (male, ICR, mouse, plasma, inhaled or intranasal, 6.09 microgram/mL, Tmax Plasma, Small Mice (low flow rate, 1 L/min), single dose, 20 minute nebulization), not above 30 min. The Tmax in data set [1] (male, ICR, mouse, plasma, inhaled or intranasal, Tmax Plasma, Large Mice (high flow rate, 5 L/min), single dose, 20 minute nebulization) was 20 min; in data set [1] (male, ICR, mouse, plasma, inhaled or intranasal, Tmax Plasma, Small Mice (low flow rate, 1 L/min), single dose, 20 minute nebulization) it was 30 min. Moreover, the maximum concentration (Cmax) (usually the highest concentration seen after dosing) in data set [1] (male, ICR, mouse, plasma, inhaled or intranasal, 6.09 microgram/mL, Cmax Plasma, Small Mice (low flow rate, 1 L/min), single dose) was 7090 ng/mL; in data set [1] (male, ICR, mouse, plasma, inhaled or intranasal, Blood Cmax, single-dose), 7090 ng/mL; in data set [1] (male, ICR, mouse, plasma, inhaled or intranasal, Cmax Plasma, Large Mice (high flow rate, 5 L/min), single dose) it was 1180 ng/mL. Besides, the AUC(0-t) (as a rule, the area under the concentration-time curve up to a stated or last time point) is 2270 ng·h/mL in data set [1] (male, ICR, mouse, plasma, inhaled or intranasal, Large Mice (high flow rate, 5 L/min), single dose) and 25800 ng·h/mL in data set [1] (male, ICR, mouse, plasma, inhaled or intranasal, Small Mice (low flow rate, 1 L/min), single dose). In addition, the “Lung Cmax” value in data set [1] (single-dose, mouse) stood at 11020 ng/mL. Further, the “increase in total drug exposure as measured by AUC0-6 for lung tissue and plasma” value in data set [1] (slower flow rate (small mice) versus high flow rate (large mice)) was more than 10 fold.
